Results reported in paper PMC8688955 (Frontiers in Pharmacology, 2021).

How the values were obtained:
[1] = molecular target: voltage-gated sodium channels; design: method as in Kuo and Bean, 1994; Lenkowski et al., 2007; settings: ref Kuo and Bean, 1994; Lenkowski et al., 2007; read-out: Affinity to inactivated states of sodium channels; cited from earlier work
CP-AMPARs = experiment: Whole-cell patch-clamp of kainate-induced currents in isolated striatal giant interneurons; format: cell-based, Wistar rat; settings: for % block: representative recording, Figure 1B; for % inhibition: 200 µM phenytoin, n = 5
Experimental: All experimental procedures were approved by the Animal Care and Use Committee of the I.M. Sechenov Institute of Evolutionary Physiology and Biochemistry of the Russian Academy of Sciences. Wistar rats (13–19 days old) were anesthetized with sevoflurane and then decapitated. Maximum effort was made to minimize the number of animals used. Brains were removed quickly and cooled to 2–4°C in an ice bath. […] Single neurons were freed from slices by vibrodissociation ([Vorobjev, 1991]). The antagonism of CP-AMPARs was studied on striatal giant interneurons ([Bernard et al., 1997]; [Gotz et al., 1997]), which were identified by their shape and size. […] The antagonism of CI-AMPARs was studied on pyramidal neurons from the CA1 area of the hippocampus.
(§1) Series resistance of about 20 MΩ was compensated by 70–80% and monitored during experiments. Currents were recorded using an EPC-8 amplifier (HEKA Electronics, Lambrecht, Germany), filtered at 5 kHz, sampled, and stored on a personal computer. Drugs were applied using the RSC-200 perfusion system (BioLogic Science Instruments, Claix, France) under computer control. The solution exchange time in the whole-cell mode was 50–60 ms. The extracellular solution contained (in mM) NaCl 143, KCl 5, MgCl2 2.0, CaCl2 2.5, D-glucose 18, and HEPES 10 (pH was adjusted to 7.3 with HCl). The pipette solution contained (in mM) CsF 100, CsCl 40, NaCl 5, CaCl2 0.5, EGTA 5, and HEPES 10 (pH was adjusted to 7.2 with CsOH). Experiments were performed at room temperature (22–24°C). […] Lamotrigine, topiramate, levetiracetam, felbamate, carbamazepine, tiagabin, vigabatrin, zonisamide, and gabapentin were purchased from Tocris Bioscience (Bristol, United Kingdom). Perampanel was from MedChemExpress (Stockholm, Sweden). Kinetics of transient processes of more than 20-ms duration was approximated by exponential functions. Experiments were performed at −80 mV holding voltage. All experimental data are presented as mean ± SD estimated from at least four experiments. Significance of the effects was tested with paired t test. Differences were considered significant at p < 0.05. 3D structures of compounds were calculated by the ZMM software (zmmsoft.ca).

[2] = Solubility in the extracellular solution; format: physicochemical; settings: concentrations above 500 µM could not be tested
Experimental: as §1, with “The whole-cell patch-clamp technique was used for recording of membrane currents generated in response to applications of kainate. Series” for “Series”, “All experimental data are presented as mean ± SD estimated from at least four experiments. Significance of the effects was tested with paired t test. Differences were considered significant at p < 0.05.” left out

[3] = molecular target: non-NMDA glutamate receptors; design: method as in Kawano et al., 1994; settings: expressed in Xenopus oocytes; ref Kawano et al., 1994; cited from earlier work

Q: Which results are given for `O=C1NC(=O)C(c2ccccc2)(c2ccccc2)N1` [Phenytoin]?
A: Kd [1]: 7 to 21 µM; % block (CP-AMPARs; 30 μM phenytoin): 19%; % block (CP-AMPARs; 100 μM phenytoin): 38%; % inhibition (CP-AMPARs; 50 µM kainate): 59 ± 5%; % inhibition (CP-AMPARs; 500 µM kainate): 48 ± 2%; % block, coapplication with agonist (CP-AMPARs; 300 µM phenytoin, n = 8): 60 ± 6%; % block (CP-AMPARs; 300 μM phenytoin): 57%; inhibition of kainate-induced currents (CP-AMPARs; 500 µM phenytoin, highest concentration tested): 58 ± 5%; Hill coefficient (CP-AMPARs; inhibition of CP-AMPARs, Hill equation): 0.7 ± 0.2; IC50 (CP-AMPARs; kainate-induced currents, Hill equation, −80 mV, read-out: IC50 CP-AMPARs): 250 ± 60 µM; solubility in the extracellular solution [2]: poor solubility; IC50 [3]: ≥ 100 µM
